# Experimental data: US20130317037A1, “METHOD OF ADMINISTRATION AND TREATMENT” (GlaxoSmithKline Intellectual Property Development Limited, priority 2010, published 2013)
# Legend:
# Type in all cases: cell-based
# HCC3153 = test: cells
# Description: (§1) From the stock concentration, 8 serial dilutions (1:5) were made with DMSO.
# (§2) Day −1: Plate cells in 100 μl volume in 96 well plate. • Note: Cell number seeded adjusted for growth characteristics, so that at time of assay for proliferation following three-day drug treatment, the control wells should still be in log-growth phase (sub-confluent). Day 0: Drug added to plate for treatment. • A time 0 plate was processed for the proliferation assay to establish a baseline reading at time when drug was added.
# (§3) LBNL are following the protocols set up by the NCI/NIH DTP Human Tumor Cell Line Screen Process (http://dtp.nci.nih.gov/branches/btb/ivclsp.html) and summarized below.
# (§4) [(Ti−Tz)/(C−Tz)]×100 for concentrations for which Ti>/=Tz
# (§5) [(Ti−Tz)/(C−Tz)]×100=50, • which is the drug concentration resulting in a 50% reduction in the net growth in control cells during the drug incubation. TGI: Total growth inhibition is calculated from
# (§6) Ti=Tz. • The drug concentration resulting in total growth inhibition (down to the ‘time 0’ baseline). LC50: Net loss of cell growth at 50% is calculated from
# (§7) [(Ti−Tz)/Tz]×100=−50. • The concentration of drug resulting in a 50% reduction in the cell number at the end of the drug treatment as compared to that at the beginning (time 0) indicating a net loss of cells following treatment.
# (§8) Values are calculated for each of these three parameters if the level of activity is reached; however, if the effect is not reached or is exceeded, the value for that parameter is expressed as greater or less than the maximum or minimum concentration tested.
# SUM149PT = test: cells
# Description: as §1, §2, §3, §4, §5, §6, §7, §8
# HCC1500 = test: cells
# Description: as §1, §2, §3, §4, §5, §6, §7, §8
# M4A4 = test: cells
# Description: as §1, §2, §3, §4, §5, §6, §7, §8
# CAMA1 = test: cells
# Description: as §1, §2, §3, §4, §5, §6, §7, §8
# MDAMB157 = test: cells
# Description: as §1, §2, §3, §4, §5, §6, §7, §8
# HCC202 = test: cells
# Description: as §1, §2, §3, §4, §5, §6, §7, §8
# T47DKBluc = test: cells
# Description: as §1, §2, §3, §4, §5, §6, §7, §8
# HCC1937 = test: cells
# Description: as §1, §2, §3, §4, §5, §6, §7, §8
# HCC2185 = test: cells
# Description: as §1, §2, §3, §4, §5, §6, §7, §8
# MCF7 = test: cells
# Description: as §1, §2, §3, §4, §5, §6, §7, §8
# AU565 = test: cells
# Description: as §1, §2, §3, §4, §5, §6, §7, §8
# MCF10F = test: cells
# Description: as §1, §2, §3, §4, §5, §6, §7, §8
# SKBR3 = test: cells
# Description: as §1, §2, §3, §4, §5, §6, §7, §8
# 184B5 = test: in vitro
# Description: as §1, §2, §3, §4, §5, §6, §7, §8
# MDAMB231 = test: cells
# Description: as §1, §2, §3, §4, §5, §6, §7, §8
# MDAMB415 = test: cells
# Description: as §1, §2, §3, §4, §5, §6, §7, §8
# MX-1 = test: cells
# Description: as §1, §2, §3, §4, §5, §6, §7, §8
# HCC1954 = test: cells
# Description: as §1, §2, §3, §4, §5, §6, §7, §8
# ZR75B = test: cells
# Description: as §1, §2, §3, §4, §5, §6, §7, §8
# HCC1806 = test: cells
# Description: as §1, §2, §3, §4, §5, §6, §7, §8
# [1] = Homo sapiens, 50% net loss of cells vs time 0, read-out: LC50 (the source's name)
# [2] = Homo sapiens, 72 h, three-day drug treatment, read-out: gIC50
structure (smiles),measurement,setting,value
"COc1ncc(-c2ccc3nccc(-c4ccnnc4)c3c2)cc1NS(=O)(=O)c1ccc(F)cc1F [Compound B, 2,4-difluoro-N-{2-(methyloxy)-5-[4-(4-pyridazinyl)-6-quinolinyl]-3-pyridinyl}benzenesulfonamide]",TGI,"HCC3153; HCC3153, total growth inhibition",281.8 nM
same,IC50,"HCC3153; Homo sapiens, 72 h, HCC3153, three-day drug treatment, read-out: gIC50",38.9 nM
same,CC50,"HCC3153; Homo sapiens, HCC3153, 50% net loss of cells vs time 0, read-out: LC50 (the source's name)",≥ 35500 nM
same,CC50,SUM149PT; [1],2600 nM
same,IC50,SUM149PT; [2],20.6 nM
same,TGI,SUM149PT; total growth inhibition,862.2 nM
same,TGI,"HCC1500; HCC1500, total growth inhibition",371.5 nM
same,IC50,"HCC1500; Homo sapiens, 72 h, HCC1500, three-day drug treatment, read-out: gIC50",75.9 nM
same,CC50,"HCC1500; Homo sapiens, HCC1500, 50% net loss of cells vs time 0, read-out: LC50 (the source's name)",6500 nM
same,IC50,"M4A4; Homo sapiens, 72 h, M4A4, three-day drug treatment, read-out: gIC50",30.2 nM
same,CC50,"M4A4; Homo sapiens, M4A4, 50% net loss of cells vs time 0, read-out: LC50 (the source's name)",> 33000 nM
same,TGI,"M4A4; M4A4, total growth inhibition",281.8 nM
same,TGI,"CAMA1; CAMA1, total growth inhibition",239.9 nM
same,IC50,"CAMA1; Homo sapiens, CAMA-1, 72 h, CAMA1, three-day drug treatment, read-out: gIC50",89.1 nM
same,CC50,"CAMA1; Homo sapiens, CAMA-1, CAMA1, 50% net loss of cells vs time 0, read-out: LC50 (the source's name)",537 nM
same,IC50,"MDAMB157; Homo sapiens, MDA-MB-157, 72 h, MDAMB157, three-day drug treatment, read-out: gIC50",398 nM
same,CC50,"MDAMB157; Homo sapiens, MDA-MB-157, MDAMB157, 50% net loss of cells vs time 0, read-out: LC50 (the source's name)",> 33000 nM
same,TGI,"MDAMB157; MDAMB157, total growth inhibition",3981.1 nM
same,TGI,"HCC202; HCC202, total growth inhibition",2.6 nM
same,IC50,"HCC202; Homo sapiens, 72 h, HCC202, three-day drug treatment, read-out: gIC50",1.1 nM
same,CC50,"HCC202; Homo sapiens, HCC202, 50% net loss of cells vs time 0, read-out: LC50 (the source's name)",21.4 nM
same,CC50,T47DKBluc; [1],9500 nM
same,IC50,T47DKBluc; [2],15.4 nM
same,TGI,T47DKBluc; total growth inhibition,74.3 nM
same,TGI,"HCC1937; HCC1937, total growth inhibition",321.7 nM
same,IC50,"HCC1937; Homo sapiens, 72 h, HCC1937, three-day drug treatment, read-out: gIC50",25.4 nM
same,CC50,"HCC1937; Homo sapiens, HCC1937, 50% net loss of cells vs time 0, read-out: LC50 (the source's name)",≥ 33000 nM
same,TGI,"HCC2185; HCC2185, total growth inhibition",10.0 nM
same,IC50,"HCC2185; Homo sapiens, 72 h, HCC2185, three-day drug treatment, read-out: gIC50",3.2 nM
same,CC50,"HCC2185; Homo sapiens, HCC2185, 50% net loss of cells vs time 0, read-out: LC50 (the source's name)",132 nM
same,IC50,"MCF7; Homo sapiens, 72 h, MCF7, three-day drug treatment, read-out: gIC50",7.3 nM
same,CC50,"MCF7; Homo sapiens, MCF7, 50% net loss of cells vs time 0, read-out: LC50 (the source's name)",149 nM
same,TGI,"MCF7; MCF7, total growth inhibition",22.0 nM
same,TGI,"AU565; AU565, total growth inhibition",6700.0 nM
same,IC50,"AU565; Homo sapiens, 72 h, AU565, three-day drug treatment, read-out: gIC50",7.2 nM
same,CC50,"AU565; Homo sapiens, AU565, 50% net loss of cells vs time 0, read-out: LC50 (the source's name)",> 33000 nM
same,IC50,"MCF10F; Homo sapiens, MCF-10F, 72 h, three-day drug treatment, read-out: gIC50",2.4 nM
same,TGI,MCF10F; total growth inhibition,14.3 nM
same,IC50,"SKBR3; Homo sapiens, SK-BR-3, 72 h, SKBR3, three-day drug treatment, read-out: gIC50",3.2 nM
same,TGI,"SKBR3; SKBR3, total growth inhibition",199.5 nM
same,TGI,"184B5; 184B5, total growth inhibition",46.3 nM
same,IC50,"184B5; Homo sapiens, 72 h, 184B5, three-day drug treatment, read-out: gIC50",5.6 nM
same,IC50,"MDAMB231; Homo sapiens, MDA-MB-231, 72 h, MDAMB231, three-day drug treatment, read-out: gIC50",110 nM
same,CC50,"MDAMB231; Homo sapiens, MDA-MB-231, MDAMB231, 50% net loss of cells vs time 0, read-out: LC50 (the source's name)",> 33000 nM
same,TGI,"MDAMB231; MDAMB231, total growth inhibition",>33000.0 nM
same,IC50,"MDAMB415; Homo sapiens, MDA-MB-415, 72 h, MDAMB415, three-day drug treatment, read-out: gIC50",20.8 nM
same,CC50,"MDAMB415; Homo sapiens, MDA-MB-415, MDAMB415, 50% net loss of cells vs time 0, read-out: LC50 (the source's name)",528 nM
same,TGI,"MDAMB415; MDAMB415, total growth inhibition",117.7 nM
same,IC50,"MX-1; Homo sapiens, MX1, 72 h, MX-1, three-day drug treatment, read-out: gIC50",5.2 nM
same,CC50,"MX-1; Homo sapiens, MX1, MX-1, 50% net loss of cells vs time 0, read-out: LC50 (the source's name)",251 nM
same,TGI,"MX-1; MX-1, total growth inhibition",20.4 nM
same,TGI,"HCC1954; HCC1954, total growth inhibition",32.3 nM
same,IC50,"HCC1954; Homo sapiens, 72 h, HCC1954, three-day drug treatment, read-out: gIC50",14.3 nM
same,CC50,"HCC1954; Homo sapiens, HCC1954, 50% net loss of cells vs time 0, read-out: LC50 (the source's name)",54.2 nM
same,CC50,"ZR75B; Homo sapiens, ZR-75B, 50% net loss of cells vs time 0, read-out: LC50 (the source's name)",> 33000 nM
same,IC50,"ZR75B; Homo sapiens, ZR-75B, 72 h, three-day drug treatment, read-out: gIC50",4.5 nM
same,TGI,ZR75B; total growth inhibition,43.4 nM
same,TGI,"HCC1806; HCC1806, total growth inhibition",375.1 nM
same,IC50,"HCC1806; Homo sapiens, 72 h, HCC1806, three-day drug treatment, read-out: gIC50",26.2 nM
same,CC50,"HCC1806; Homo sapiens, HCC1806, 50% net loss of cells vs time 0, read-out: LC50 (the source's name)",2820 nM
